Laboratory results reported in PubChem BioAssay AID624119 (National Center for Advancing Translational Sciences (NCATS), 2012).

Molecular target: Cytochrome P450 2D6 (Homo sapiens) (UniProt P10635)
Assay: qHTS Assay for Inhibitors of Bacillus subtilis Sfp phosphopantetheinyl transferase (PPTase): CYP 2D6
Conditions: CYP2D6 inhibition, single concentration 3 uM; at 3 µM; active compounds read high
Text: The covalent attachment of a phosphopantetheinyl (4'-PP) arm to a variety of synthases and other proteins is a key posttranslational protein modification. The 4'-PP is installed on the proteins post-translationally from coenzyme A (CoA) on a conserved serine residue by action of phosphopantetheinyl transferase (PPTase) enzymes. Phosphopantetheinylation is essential for synthase activity, and removal of the PPTase gene precludes natural product synthesis in microorganisms, or in the case of fatty acid biosynthesis, renders the organism unviable. PPTase enzymes belong to a distinct structural superfamily. Within bacteria, these enzymes are grouped into two classes based upon primary structure, the AcpS-Type and Sfp-Type PPTases.
Sfp-type PPTases, corresponding to an activator of surfactin production in Bacillus subtilis, are responsible for modifying type I polyketide and nonribosomal peptide synthases of prokaryotes. Sfp-type PPTases are responsible for the activation of a variety of pathogen-associated virulence factors. Among these compounds are toxins such as mycolactone from Mycobacterium ulcerans, siderophores such as vibriobactin from Vibrio cholerae or mycobactin from Mycobacterium tuberculosis, as well as the mycolic acids which form the waxy cell wall of Mycobacteria. The biosyntheses of these natural products are considered attractive targets for drug design. […]

Chain of Cytochrome P450 2D6 (Homo sapiens) (P10635 whole entry, looked up): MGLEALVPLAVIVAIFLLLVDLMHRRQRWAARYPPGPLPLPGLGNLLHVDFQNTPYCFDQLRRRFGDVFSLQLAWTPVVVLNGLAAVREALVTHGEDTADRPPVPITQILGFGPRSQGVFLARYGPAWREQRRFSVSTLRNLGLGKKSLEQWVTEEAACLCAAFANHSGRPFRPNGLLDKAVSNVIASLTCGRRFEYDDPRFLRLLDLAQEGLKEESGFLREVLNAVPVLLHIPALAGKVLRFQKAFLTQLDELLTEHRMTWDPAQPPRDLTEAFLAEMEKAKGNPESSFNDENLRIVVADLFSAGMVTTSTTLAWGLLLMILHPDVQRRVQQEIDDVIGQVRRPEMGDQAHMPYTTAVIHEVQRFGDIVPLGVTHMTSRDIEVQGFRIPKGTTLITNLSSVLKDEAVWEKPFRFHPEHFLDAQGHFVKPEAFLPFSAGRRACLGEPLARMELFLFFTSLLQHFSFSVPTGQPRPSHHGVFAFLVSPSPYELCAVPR

inhibition: 25%
Compound: COc1ccnc(NC(=S)N2CCN(c3ncc(C(F)(F)F)cc3Cl)CC2)c1
